{"source": "patent US5463074A", "about": "“Imidazolyl or imidazoylalkyl substituted with a four or five membered nitrogen containing heterocyclic ring” (Schering Corporation, priority 1994, dated 1995)"}
{"target": "T1, H3 receptor (Cavia porcellus, UniProt Q9JI35)", "T1 construct": "The source of the H3 receptors in this experiment was guinea pig brain; from tissue; host or cells: guinea pig brain membranes", "T1 sequence (Q9JI35 whole entry)": "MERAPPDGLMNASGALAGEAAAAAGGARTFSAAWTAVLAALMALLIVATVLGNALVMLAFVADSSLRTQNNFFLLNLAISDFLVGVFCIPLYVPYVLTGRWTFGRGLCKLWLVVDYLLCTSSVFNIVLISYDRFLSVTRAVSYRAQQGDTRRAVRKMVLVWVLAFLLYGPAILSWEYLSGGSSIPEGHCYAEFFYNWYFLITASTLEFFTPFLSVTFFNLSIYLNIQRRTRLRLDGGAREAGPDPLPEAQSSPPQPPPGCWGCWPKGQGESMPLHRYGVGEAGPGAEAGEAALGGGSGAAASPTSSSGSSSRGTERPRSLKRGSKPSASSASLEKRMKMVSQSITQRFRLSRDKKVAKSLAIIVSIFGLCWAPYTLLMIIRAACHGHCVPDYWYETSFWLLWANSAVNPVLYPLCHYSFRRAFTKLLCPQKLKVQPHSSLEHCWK", "experiment": "H3 Receptor Binding Assay", "parameters": "species or system guinea pig", "conditions": "not given", "experimental": "(§1) The source of the H3 receptors in this experiment was guinea pig brain. The animals used weighted 400-600 g. The tissue was homogenized using a Polytron in a solution of 50 mM Tris, pH 7.5. The final concentration of tissue in the homogenization buffer was 10% w/v. The homogeneates were centrifuged at 1000×g for 10 min. in order to remove clumps of tissue and debris. The resulting supernatants were then centrifuged at 50,000×g for 20 min. in order to sediment the membranes, which were next washed 3 times in homogenization buffer (50,000×g for 20 min. each). The membranes were frozen and stored at -70° C. until needed.\n(§2) All compounds to be tested were dissolved in DMSO and then diluted into the binding buffer (50 mM Tris, pH 7.5) such that the final concentration was 2 μg/mL with 0.1% DMSO. Membranes were then added (400 μg of protein) to the reaction tubes. The reaction was started by the addition of 3 nM [^3 H]R-α-methylhistamine (8.8 CVmmol) or [^3 H]-N-methylhistamine (80 Cvmmol) and incubated at 30° for 30 min.", "units": {"Ki": "nM"}}
{"smiles": "CCCCC[C@@H]1CNC[C@@H]1c1c[nH]cn1", "note": "(relative stereo)", "Ki": 77}
{"target": "T1, H3 receptor", "experiment": "H3 Receptor Binding Assay", "parameters": "species or system guinea pig", "conditions": "at a concentration of 2 μg/mL; guinea pig brain membranes; read-out: % inhibition (of specific binding of radioactive ligand)", "experimental": "as §1, §2", "units": {"inhibition at 2 µg/mL": "%"}}
{"smiles": "CC1(C)CNCC1c1c[nH]cn1", "note": "(stereo not shown)", "inhibition at 2 µg/mL": 68}
{"target": "T1, H3 receptor", "experiment": "H3 Receptor Binding Assay", "parameters": "species or system guinea pig", "conditions": "guinea pig brain membranes; [3H]R-α-methylhistamine or [3H]-N-methylhistamine, 30°, 30 min; read-out: H3 Binding Ki", "experimental": "as §1, §2", "units": {"Ki": "nM"}}
{"smiles": "c1nc(CC2CCCN2)c[nH]1", "note": "(stereo not shown)", "Ki": 110}
{"smiles": "CC[C@@H]1CNC[C@H]1c1c[nH]cn1", "note": "(relative stereo)", "Ki": 150}
{"smiles": "C[C@@H]1C[C@@H](c2c[nH]cn2)CN1", "note": "(relative stereo)", "Ki": 76}
{"smiles": "CC1(c2c[nH]cn2)CCNC1", "note": "(stereo not shown)", "Ki": 170}
{"smiles": "C[C@@H]1NCC[C@H]1c1c[nH]cn1", "note": "(relative stereo)", "Ki": 6}
{"smiles": "CC1(C)NCCC1c1c[nH]cn1", "note": "(stereo not shown)", "Ki": 66}
{"smiles": "C[C@@H]1NC[C@H]1c1c[nH]cn1", "note": "(relative stereo)", "Ki": 7}
{"smiles": "CCCCC[C@@H]1CNC[C@H]1c1c[nH]cn1", "note": "(relative stereo)", "Ki": 450}
{"smiles": "c1nc(C2CCNC2)c[nH]1", "note": "(stereo not shown)", "Ki": 3}
{"smiles": "CN1CCC(Cc2c[nH]cn2)C1", "note": "(stereo not shown)", "Ki": 3}
{"smiles": "C[C@@H]1CNC[C@H]1c1cnc[nH]1", "note": "(relative stereo)", "Ki": 8}
{"smiles": "c1ccc(CC[C@@H]2NCC[C@@H]2c2c[nH]cn2)cc1", "note": "(relative stereo)", "Ki": 600}
{"target": "T1, H3 receptor", "experiment": "H3 Receptor Binding Assay", "parameters": "species or system guinea pig", "conditions": "read-out: % inhibition (of specific binding of radioactive ligand)", "experimental": "as §1, §2", "units": {"inhibition at 2 µg/mL": "%"}}
{"smiles": "c1ccc(C[C@@H]2NCC[C@H]2c2c[nH]cn2)cc1", "note": "(relative stereo)", "inhibition at 2 µg/mL": 7}
{"test_system": "H3 receptors", "experiment": "not given", "conditions": "H3 receptors in rat brain; cited from earlier work"}
{"smiles": "NCCc1c[nH]cn1", "note": "[histamine]", "maximum inhibition of release": "approximately 60%"}
